Source: US20090117155A1, “TREATMENT OF HIV-1 BY MODULATION OF VPR ACTIVATION OF THE M-CSF PROMOTER” (priority 2006, published 2009)

What was measured:
M-CSF promoter = M-CSF promoter luciferase reporter (pGL3-M-CSF) in primary human macrophages; format: cell-based
Description: (§1) Peripheral blood mononuclear cells (PBMC) were isolated from heparinized whole blood or buffy coats acquired from healthy seronegative blood donors by density-gradient centrifugation (Histopaque-1017, Sigma-Aldrich, St. Louis, Mo.). CD14+ monocytes were isolated from prepared PBMC using the Miltenyi AutoMACS system (Miltenyi Biotec, Auburn, Calif.). Briefly, cells were incubated with anti-CD14 monoclonal antibody-coated microbeads (Miltenyi Biotec, Auburn, Calif.) at 4° C. for 15 minutes and run on an AutoMacs separator. […] Recovered CD14+ monocytes were used immediately in transfection experiments. For macrophage preparation, PBMC were incubated in RPMI 1640 (Invitrogen, Carlsbad, Calif.) containing 20% FBS, 10% human AB serum, 2 mM L-glutamine and penicillin (50 U/ml)/streptomycin (50 μg/ml) overnight at 37° C. Adherent cells were washed 3 times with phosphate-buffered saline (PBS), removed with cold PBS 0.02% EDTA and differentiated into macrophages for 6 days in DMEM supplemented with 10% human AB serum and 2 mM L-glutamine. THP1 cells were cultivated in RPMI 1640 supplemented with 10% FBS, 2 mM L-glutamine and penicillin (50 U/ml)/streptomycin (50 μg/ml) (=complete medium).
The M-CSF promoter (−1310/+48 bp) was amplified from human genomic DNA by PCR with the primers 5′-[…]-3′ (SEQ ID NO: 20) and 5′-[…] […]-3′ (SEQ ID NO: 21). […] Amplification consisted of 30 cycles of 30 s at 94° C., 30 s at 58° C., and 6 min at 72° C. All the constructs were verified by sequencing (Nucleic Acid Facility, Jefferson University, PA USA).
(§2) THP1 cells (2×106/transfection) were transiently transfected with Effecten reagent (Qiagen, Santa Clara, Calif.) using 1 μg of plasmid DNA, 8 μl enhancer and 10 μl effectene. Cells were incubated in complete medium for 24 hours in 6-well plates. Human primary CD 14+ cells were transfected using the Human Monocyte Nucleofector Kit (Amaxa, Gaithersburg, Md.) according to the manufacturer's instructions. Briefly, 5×10^6 CD 14+ cells were resuspended in 100 μl of nucleofector solution (Amaxa) with 5 μg of DNA and electroporated using the program Y-001. Cells were then transferred in 1.5 ml of Human Monocyte Nucleofector medium (Amaxa) in 24-well plates for 24 hours. Human macrophages were transfected using the Human Macrophage Nucleofector Kit (Amaxa) according to the manufacturer's specifications. In brief, 0.5×10^6 macrophages were resuspended in 100 μl of nucleofector solution (Amaxa) with 5 μg of DNA and electroporated using the program Y-010. Cells were incubated for 24 hours in advanced RPMI (Invitrogen, Carlsbad, Calif.) supplemented with 10% FBS and 2 mM L-glutamine in 12-well plates. One day after transfection, cells were harvested by centrifugation and cell pellets were resuspended in 200 μl of lysis buffer (Promega). Twenty microliters of cell lysate was assayed for luciferase activity using the Luciferase Assay System (Promega). The protein concentration was determined with the BCA Protein Assay Reagent (Pierce, Rockford, Ill.) and the luciferase activity was expressed in Relative Light Unit (RLU) per μg of protein.

mammary tumorigenesis = conditions: Bcra1/p53-deficient mice, Poole et al., 2006; cited from earlier work
M-CSF = M-CSF production in culture supernatants of primary human macrophages (ELISA); format: cell-based
Description: as §1, §2
M-CSF and IL-6 production in cell culture supernatants were assessed by ELISA according to the manufacturer's instructions (R&D systems, Minneapolis, Minn.).

HIV-1 = conditions: Schafer et al., 2006; cited from earlier work
HIV-1 LTR = conditions: Schafer et al., 2006; cited from earlier work
[1] = concentrations as high as 100 μM, in the absence of Vpr
[2] = primary macrophages co-transfected with pGL3-M-CSF and Vpr vector

Compound: CC(=O)[C@H]1CC[C@H]2[C@@H]3CCC4=CC(=O)CC[C@]4(C)[C@H]3CC[C@]12C [progesterone]
- effect on M-CSF promoter activity (M-CSF promoter; primary macrophages transfected with pGL3-M-CSF, different concentrations, no Vpr): no increase

Compound: IL-6: cytokine IL-6 used to treat primary macrophages for 24 hours
- M-CSF transcription (M-CSF promoter; primary macrophages treated for 24 hours): 50.1±0.4 RLU/μg of protein

Compound: CC#C[C@]1(O)CC[C@H]2[C@@H]3CCC4=CC(=O)CCC4=C3[C@@H](c3ccc(N(C)C)cc3)C[C@@]21C [RU486, mifepristone]
- inhibition at 20 µM (M-CSF promoter; Homo sapiens, Primary macrophage, 20 μM, primary macrophages co-transfected with pGL3-M-CSF and Vpr vector, read-out: inhibition of Vpr-dependent M-CSF promoter activity): > 50%
- effect on basal level of M-CSF promoter activity (M-CSF promoter; [1]): did not completely inhibit
- effect on Vpr-dependent M-CSF promoter activity (M-CSF promoter; [2]): dose-dependent decrease
- mammary tumorigenesis (mammary tumorigenesis): prevent mammary tumorigenesis
- inhibition of the Vpr effect on M-CSF production (M-CSF; 50 μM, primary macrophages co-transfected with pGL3-M-CSF and Vpr vector): total inhibition
- inhibition at 10 µM (M-CSF; Homo sapiens, Primary macrophage, 10 μM, primary macrophages co-transfected with pGL3-M-CSF and Vpr vector, read-out: inhibition of Vpr induced M-CSF production): > 50%
- effect on basal level M-CSF production (M-CSF; [1]): did not completely inhibit
- concentration required for inhibition of M-CSF induction by Vpr (M-CSF; primary human macrophages): approximately 10 μM
- effect on Vpr-dependent M-CSF production (M-CSF; [2]): dose-dependent decrease
- viral replication in PBMCs (HIV-1): inhibits
- Vpr-induced transactivation of the HIV-1 LTR (HIV-1 LTR): inhibits
